Here are results for four compounds from patent publication US20200255367A1, “Diesters for Personal Care Applications Derived from 1-Methylheptyl Alcohol” (Inolex Investment Corporation, priority 2016, published 2020).

Data set [1] in a line: Acid value (AV), ASTM method. The class given is physicochemical. How it is done: Acid value (AV) was measured using ASTM official method number D-974-1 ? .
Data set [2] in a line: Moisture content by Karl-Fischer. The data set is classed as physicochemical. How it is done:
Moisture content (% HOH) was measured using an automatic volumetric Karl-Fischer device, the Aquastar AQV21 (Gibbstown, N.J., USA.)

Data set [3] can be described thus: Kinematic viscosity at 25° C., ASTM method. The data set is classed as physicochemical. Here is the method: Kinematic viscosity was tested at 25° C. using ASTM (American Society of Testing and Materials, West Conshohocken, Pa., USA) official method number D-44515a.
Another data set is described as follows: Color, ASTM D-1209. The class given is physicochemical. Here is the method: Color was measured using ASTM D-1209-05(2001 reapproved), and flash point was determined using ASTM D-92-12b.
For data set [4] the following is noted: 60° C.; cited from earlier work.

Compound `CCCCCCC(C)OC(=O)CCC(=O)OC(C)CCCCCC` (stereo not shown) [bis(1-methylheptyl) butanedioate] showed an Acid value in data set [1] of 0.01 mg KOH/g. In data set [2], this compound yielded a Moisture of 0.01 wt. %. In addition, the “Kinematic Viscosity” value in data set [3] is 12.0 cSt. Moreover, the Color in the data set “Color, ASTM D-1209” is recorded as 12 APHA.

For `CCOC(=O)c1ccccc1` [ethyl benzoate], the “alkaline hydrolysis rate constant (kOH)” value in data set [4] is 0.258 M⁻¹ s⁻¹.

For the compound `CC(C)OC(=O)c1ccccc1` [isopropyl benzoate], the “alkaline hydrolysis rate constant (kOH)” value in data set [4] is 0.0533 M⁻¹ s⁻¹.

As for `CCCCCCC(=O)OCC(C)(C)COC(=O)CCCCCC` [neopentyl glycol diheptanoate], in data set [1], the Acid value is reported as 0.05 mg KOH/g. Also, in data set [2], the Moisture is 0.01 wt. %. The “Kinematic Viscosity” value in data set [3] was found to be 7.2 cSt. The compound further yielded a Color in the data set “Color, ASTM D-1209” of 17 APHA.
